{
  "source": "patent US8927563B2",
  "about": "“Kinase inhibitor” (Respivert Limited, priority 2013, dated 2015)",
  "key": {"Lck": {"target": "Lck (Homo sapiens (Human), UniProt P06239)", "sequence (P06239 whole entry)": "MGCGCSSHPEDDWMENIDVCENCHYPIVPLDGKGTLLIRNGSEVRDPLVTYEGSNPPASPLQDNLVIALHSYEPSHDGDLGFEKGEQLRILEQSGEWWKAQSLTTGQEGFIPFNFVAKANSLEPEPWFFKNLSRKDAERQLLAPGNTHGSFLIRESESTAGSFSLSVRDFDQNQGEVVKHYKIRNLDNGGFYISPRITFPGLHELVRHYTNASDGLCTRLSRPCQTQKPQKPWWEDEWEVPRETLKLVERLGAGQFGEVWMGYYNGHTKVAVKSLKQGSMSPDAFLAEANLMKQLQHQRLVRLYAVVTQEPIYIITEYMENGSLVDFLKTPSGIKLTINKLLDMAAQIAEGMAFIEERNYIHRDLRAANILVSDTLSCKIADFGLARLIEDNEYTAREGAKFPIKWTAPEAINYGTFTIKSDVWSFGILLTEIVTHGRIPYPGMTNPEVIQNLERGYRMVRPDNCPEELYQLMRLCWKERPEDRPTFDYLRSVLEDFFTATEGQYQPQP", "experiment": "Phosphoflow assay, cellular Lck inhibition in Jurkat cells", "format": "cell-based", "conditions": "H2O2 stimulated, read-out: IC50 Values, phospho-Lck (converted)", "protocol": "Jurkat T cells were cultured in starve medium (RPMI 1640+5% FBS) for 24 h prior to the experiment. Cells were harvested and resuspended at 10×10^6 cells/mL in starve medium and then plated into round-bottomed 96 well plates at 1×10^6 cells/well. Serial dilutions of test compound were added (1% final DMSO concentration) for 2 h prior to stimulation. Following pre-incubation with compound, cells were stimulated with H2O2 (0.05% final) for 5 min. The reaction was stopped by centrifugation at 2000 rpm (3 min, 4° C.), then the supernatant was removed and 100 μL of cold fix/perm solution (BD Fix/Perm kit #554714) added. Plates were incubated for 20 min at 4° C. before centrifugation and washing with supplied 1× wash medium (BD Fix/Perm kit #554714). Cells were stained for either phospho-p38α (T180/182), supplied by Cell Signalling Technology (9211s), or phospho-Lck (Y394), supplied by R&D (MAB7500). Antibodies were diluted to 5 μg/mL (R&D) or 1:200 (Cell Signalling Technology) in wash medium, before being incubated 1 h at 4° C. in the dark. Following 3 repeat washes with ice cold wash buffer, secondary antibody (anti-rabbit-FITC #F1362 or anti-mouse-FITC #F2883, both from Sigma) was added at a dilution of 1:1000 and incubated for 1 h at 4° C. in the dark. […] Cells were analysed by flow cytometry using BD Accuri C6."}, "p38 MAPKα [1]": {"target": "T1, p38 MAPKα (Homo sapiens (Human), UniProt Q16539)", "T1 sequence (Q16539 whole entry, looked up)": "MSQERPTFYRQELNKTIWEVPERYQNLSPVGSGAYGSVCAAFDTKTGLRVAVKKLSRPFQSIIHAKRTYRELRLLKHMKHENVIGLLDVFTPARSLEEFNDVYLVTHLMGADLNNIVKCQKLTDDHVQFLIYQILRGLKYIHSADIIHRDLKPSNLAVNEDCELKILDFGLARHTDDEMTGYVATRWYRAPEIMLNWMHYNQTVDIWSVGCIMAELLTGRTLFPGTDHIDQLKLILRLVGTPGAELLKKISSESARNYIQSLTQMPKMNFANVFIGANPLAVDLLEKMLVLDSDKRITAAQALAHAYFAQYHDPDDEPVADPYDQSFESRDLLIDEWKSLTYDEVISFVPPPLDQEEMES", "experiment": "KINOMEscan dissociation constant, p38 MAPKα", "format": "binding", "protocol": "(§1) Kinase enzyme binding activities of compounds disclosed herein may be determined using a proprietary assay which measures active site-directed competition binding to an immobilized ligand (Fabian, M. A. et al., Nature Biotechnol., 2005, 23:329-336). These assays may be conducted by DiscoverX (formerly Ambit; San Diego, Calif.). The percentage inhibition produced by incubation with a test compound may be calculated relative to the non-inhibited control."}, "B-Raf": {"target": "B-Raf (Homo sapiens (Human), UniProt P15056)", "sequence (P15056 whole entry)": "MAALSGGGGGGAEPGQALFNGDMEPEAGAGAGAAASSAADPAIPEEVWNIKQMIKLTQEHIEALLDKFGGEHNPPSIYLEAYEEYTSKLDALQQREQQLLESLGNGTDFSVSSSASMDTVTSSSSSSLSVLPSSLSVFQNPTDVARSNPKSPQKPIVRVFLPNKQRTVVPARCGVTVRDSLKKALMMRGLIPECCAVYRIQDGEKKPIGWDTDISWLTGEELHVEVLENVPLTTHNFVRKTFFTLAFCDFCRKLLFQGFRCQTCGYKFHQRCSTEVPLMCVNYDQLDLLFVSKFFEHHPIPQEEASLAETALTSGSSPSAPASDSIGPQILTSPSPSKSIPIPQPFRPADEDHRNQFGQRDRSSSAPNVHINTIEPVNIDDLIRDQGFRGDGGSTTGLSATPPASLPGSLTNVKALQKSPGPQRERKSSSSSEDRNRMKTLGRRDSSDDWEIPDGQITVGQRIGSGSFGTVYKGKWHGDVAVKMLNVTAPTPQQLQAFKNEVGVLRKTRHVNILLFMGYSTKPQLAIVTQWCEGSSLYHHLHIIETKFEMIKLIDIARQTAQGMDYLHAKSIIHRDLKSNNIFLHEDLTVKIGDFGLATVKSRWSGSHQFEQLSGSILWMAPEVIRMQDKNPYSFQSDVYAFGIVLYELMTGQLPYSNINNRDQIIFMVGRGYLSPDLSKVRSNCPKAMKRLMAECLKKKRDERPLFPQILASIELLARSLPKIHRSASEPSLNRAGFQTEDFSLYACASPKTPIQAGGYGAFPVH", "experiment": "KINOMEscan binding of B-Raf to standard ligand", "protocol": "as §1"}, "p38 MAPKα [2]": {"target": "T1, p38 MAPKα", "experiment": "p38 MAPKα enzyme inhibition (Method 2), Z-LYTE FRET", "format": "biochemical", "protocol": "(§2) The enzyme inhibitory activities of compounds disclosed herein are determined by FRET using synthetic peptides labelled with both donor and acceptor fluorophores (Z-LYTE, Invitrogen Ltd., Paisley, UK).\nThe inhibitory activities of test compounds against the p38 MAPKα isoform (MAPK14: Invitrogen) are evaluated indirectly by determining the level of activation/phosphorylation of the down-stream molecule, MAPKAP-K2. The p38 MAPKα protein (80 ng/mL, 2.5 μL) is mixed with the test compound (2.5 μL of either 4 μg/mL, 0.4 μg/mL, […] or 0.004 μg/mL) for 2 hr at RT. […] The mixture is incubated for 1 hr at RT. Development reagent (protease, 5 μL) is added for 1 hr prior to detection in a fluorescence microplate reader (Varioskan® Flash, ThermoFisher Scientific). […]\n(§3) In all cases, the site-specific protease cleaves non-phosphorylated peptide only and eliminates the FRET signal. Phosphorylation levels of each reaction are calculated using the ratio of coumarin emission (donor) over fluorescein emission (acceptor), for which high ratios indicate high phosphorylation and low ratios indicate low phosphorylation levels."}, "Syk": {"target": "Syk (Homo sapiens (Human), UniProt P43405)", "experiment": "Syk enzyme inhibition, Z-LYTE FRET", "format": "biochemical", "protocol": "as §2\nThe inhibitory activities of the compound of the invention against c-Src and Syk enzymes (Invitrogen) are evaluated in a similar fashion to that described hereinabove. The relevant enzyme (3000 ng/mL or 2000 ng/mL respectively, 2.5 μL) is incubated with the test compound (either 1 μg/mL, 0.1 μg/mL, 0.01 μg/mL, or 0.001 μg/mL, 2.5 μL each) for 2 hr at RT. The FRET peptides (8 μM, 2.5 μL) and appropriate ATP solutions (2.5 μL, 800 μM for c-Src, and 60 μM ATP for Syk) are then added to the enzymes/compound mixtures and the mixture incubated for 1 hr. Development reagent (protease, 5 μL) is added for 1 hr prior to detection in a fluorescence microplate reader (Varioskan® Flash, ThermoFisher Scientific).\nas §3"}, "[3]": {"experiment": "Pharmacokinetics after oral administration to rats", "format": "in vivo", "conditions": "oral 5 mg/kg, vehicle B", "protocol": "Studies were conducted by Sai Life Sciences (Hinjewadi, Pune, India) to investigate the plasma pharmacokinetics and total colon tissue distribution of Compound I. In particular, pharmacokinetic studies were carried out in: • male C57BL/6 mice, following a single oral administration; and • male Wistar rats following a single intravenous or oral administration."}, "GSK3α": {"target": "GSK3α (Homo sapiens (Human), UniProt P49840)", "sequence (P49840 whole entry, canonical isoform)": "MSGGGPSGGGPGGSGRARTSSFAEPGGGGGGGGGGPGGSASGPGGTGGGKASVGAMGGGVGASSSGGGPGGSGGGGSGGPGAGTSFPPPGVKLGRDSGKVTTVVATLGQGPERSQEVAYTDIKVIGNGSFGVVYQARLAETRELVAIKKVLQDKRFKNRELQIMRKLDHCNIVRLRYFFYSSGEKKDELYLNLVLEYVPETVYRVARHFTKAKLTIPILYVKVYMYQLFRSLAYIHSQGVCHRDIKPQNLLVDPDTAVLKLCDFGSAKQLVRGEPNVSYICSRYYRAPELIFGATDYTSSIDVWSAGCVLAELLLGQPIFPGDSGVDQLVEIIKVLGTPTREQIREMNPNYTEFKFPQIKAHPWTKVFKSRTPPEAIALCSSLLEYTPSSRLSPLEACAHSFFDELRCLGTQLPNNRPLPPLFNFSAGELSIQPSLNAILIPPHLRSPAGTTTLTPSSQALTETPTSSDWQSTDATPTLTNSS", "experiment": "GSK3α enzyme inhibition (Method 2), Z-LYTE FRET", "format": "biochemical", "protocol": "as §2\nThe inhibitory activities of the compound of the invention against the GSK 3α enzyme isoform (Invitrogen), are evaluated by determining the level of activation/phosphorylation of the target peptide. The GSK3-α protein (500 ng/mL, 2.5 μL) is mixed with the test compound (2.5 μL at either 4 μg/mL, 0.4 μg/mL, 0.04 μg/mL, or 0.004 μg/mL) for 2 hr at RT. The FRET peptide (8 μM, 2.5 μL), which is a phosphorylation target for GSK3α, and ATP (40 μM, 2.5 μL) are then added to the enzyme/compound mixture and the resulting mixture incubated for 1 hr. Development reagent (protease, 5 μL) is added for 1 hr prior to detection in a fluorescence microplate reader (Varioskan® Flash, ThermoFisher Scientific).\nas §3, with “levels. […]” for “levels.”"}},
  "data": [
    {"smiles": "C#Cc1cc(Nc2nccc(Oc3ccc(NC(=O)Nc4cc(C(C)(C)C)cc(NS(C)(=O)=O)c4OC)c4ccccc34)n2)cc(C(=O)NCCOCCOCCOC)c1", "note": "[Compound I, 3-((4-((4-(3-(5-(tert-Butyl)-2-methoxy-3-(methylsulfonamido)phenyl)ureido)naphthalen-1-yl)oxy)pyrimidin-2-yl)amino)-5-ethynyl-N-(2-(2-(2-methoxyethoxy)ethoxy)ethyl)benzamide]", "values": [
      {"measurement": "IC50", "setting": "Lck", "result": 7.14, "unit": "nM"},
      {"measurement": "Kd", "setting": "p38 MAPKα [1]", "result": 9, "unit": "nM"},
      {"measurement": "effect on binding of B-Raf to its standard ligand", "setting": "B-Raf", "result": "did not have any significant effect"},
      {"measurement": "IC50", "setting": "p38 MAPKα [2]", "result": 224, "unit": "nM"},
      {"measurement": "IC50", "setting": "Syk", "result": 591, "unit": "nM"},
      {"measurement": "Fpo", "setting": "[3]", "result": 0.0, "unit": "%"},
      {"measurement": "IC50", "setting": "GSK3α", "result": 411, "unit": "nM"}
    ]}
  ]
}
